Square brackets hold non-standard residues; d marks the D form. Ends that are not written are not given here. * marks the point of attachment. FITC = O=C1OC2(c3ccc(O)cc3Oc3cc(O)ccc32)c2ccc(NC(=S)*)cc21; Dnp = O=[N+]([O-])c1ccc(*)c([N+](=O)[O-])c1; βAla = NCCC(=O)O
How the values were obtained:
Assay type in all cases: biochemical
subtilisin [1] = assay: Subtilisin cleavage of particles, fluorescence change (Example 3); conditions: subtilisin 10 units, 1 mg particle, difference 60 minutes after adding sample solution vs before; excitation 485 nm, fluorescence 535 nm
Experimental: (§1) To each 1 mg of the particle for detecting the enzyme activity of the samples 22 to 25, 190 μL of 20 mM Tris-HCl buffer (pH 8.0, 100 mM NaCl, 50 mM CaCl2) containing 0.01% Tween 20 was added, to which 10 μL of elastase aqueous solution (10 units), 10 μL of trypsin aqueous solution (10 units) and 10 μL of subtilisin aqueous solution (10 units) as the sample solution was added. Every measurement time, 10 μL of the sample was taken and 190 μL of the buffer was added, the mixture was transferred to the 96-well plate, and fluorescence values were measured (measurement time: 0.1 seconds) using Wallac 1420 ARVO sx plate reader manufactured by PerkinElmer. The changed amount (difference between the fluorescence value 60 minutes after adding the sample solution and the fluorescence value before adding the sample solution) of the fluorescence value minutes after adding the sample solution is shown in the column on the right in Table 3 (excitation wavelength: 485 nm, fluorescence wavelength: 535 nm).

trypsin [2] = assay: Trypsin cleavage of particles, fluorescence change (Example 3); conditions: for Fluorescence value Trypsin (changed amount): trypsin 10 units, 1 mg particle, difference 60 minutes after adding sample solution vs before, excitation 485 nm, fluorescence 535 nm
Experimental: as §1

elastase = assay: Elastase cleavage of particles, fluorescence change (Example 3); conditions: for Fluorescence value Elastase (changed amount): elastase 10 units, 1 mg particle, difference 60 minutes after adding sample solution vs before, excitation 485 nm, fluorescence 535 nm
Experimental: as §1

trypsin [3] = assay: Trypsin cleavage of particles for detecting enzyme activity, fluorescence change (Example 2); conditions: trypsin 100 units, 1 mg particle, difference 60 minutes after adding sample solution vs before; excitation 485 nm, fluorescence 535 nm
Experimental: as §1, with “the samples 9 to 21,” for “the samples 22 to 25,”, “9 to 21, 190 μL” for “22 to 25, 190 μL”, “to which […] of” for “to which 10 μL of elastase aqueous solution (10 units), 10 μL of”, “aqueous solution (100 units) as” for “aqueous solution (10 units) and 10 μL of subtilisin aqueous solution (10 units) as”, “fluorescence value 60 minutes after” for “fluorescence value minutes after”, “in Table 2 (excitation wavelength:” for “in Table 3 (excitation wavelength:”

subtilisin [4] = assay: Subtilisin cleavage of particles for detecting enzyme activity, fluorescence change (Example 1); conditions: for Fluorescence value (changed amount): subtilisin 10 units, 1 mg particle, difference 20 minutes after adding sample solution vs before, excitation 485 nm, fluorescence 535 nm
Experimental: To each 1 mg of the particle for detecting the enzyme activity of the samples 1 to 8, 190 μL of 20 mM Tris-HCl buffer (pH 8.0, 100 mM NaCl, 50 mM CaCl2) containing 0.01% Tween 20 was added, to which 10 μL of subtilisin aqueous solution (10 units) as a sample solution was added. Every measurement time, 10 μL of the sample was taken and 190 μL of the buffer was added, the mixture was transferred to a 96-well plate, and fluorescence values were measured (measurement time: 0.1 seconds) using Wallac 1420 ARVO sx plate reader manufactured by PerkinElmer. A changed amount (difference between the fluorescence value 20 minutes after adding the sample solution and the fluorescence value before adding the sample solution) of the fluorescence value 20 minutes after adding the sample solution is shown in the column on the right in Table 1 (excitation wavelength: 485 nm, fluorescence wavelength: 535 nm).

**Q.** How did the “Fluorescence value Subtilisin (changed amount)” value (subtilisin [1]) turn out when “Sample 22: PEGA resin particle bearing FITC-β-Ala-Leu-Leu-Glu-Lys, Dnp quencher on lysine ({FITC}-[βAla]LLEK(Dnp); also: attached to PEGA resin particle)” was run?
**A.** 481

**Q.** What about the “fluorescence change by trypsin activity relative to that by subtilisin activity” value (trypsin [2]; Table 3 values, same particle) of the same substance?
**A.** about 1/240

**Q.** And the “Fluorescence value Trypsin (changed amount)” value (trypsin [2])?
**A.** 2

**Q.** And the “Fluorescence value Elastase (changed amount)” value (elastase)?
**A.** 38

**Q.** Which “Fluorescence value (changed amount)” value (trypsin [3]) does the source give for “Sample 10: PEGA resin particle bearing FITC-β-Ala-Asp-Gly-Arg-Lys, Dnp quencher on lysine ({FITC}-[βAla]DGRK(Dnp); also: attached to PEGA resin particle)” here?
**A.** 57

**Q.** Which “Fluorescence value (changed amount)” value (trypsin [3]) does the source give for “Sample 21: PEGA resin particle bearing FITC-β-Ala-Pro-Phe-Arg-Lys, Dnp quencher on lysine ({FITC}-[βAla]PFRK(Dnp); also: attached to PEGA resin particle)” here?
**A.** 3

**Q.** For “Sample 11: PEGA resin particle bearing FITC-β-Ala-Pro-Arg-Gly-Lys, Dnp quencher on lysine ({FITC}-[βAla]PRGK(Dnp); also: attached to PEGA resin particle)”, which “Fluorescence value (changed amount)” value (trypsin [3]) is on record?
**A.** 51

**Q.** For “Sample 2: PEGA resin particle bearing FITC-β-Ala-Ala-Pro-Ala-Lys, Dnp quencher on lysine ({FITC}-[βAla]APAK(Dnp); also: attached to PEGA resin particle)”, which “Fluorescence value (changed amount)” value (subtilisin [4]) is on record?
**A.** 7.9

**Q.** For “Sample 24: PEGA resin particle bearing FITC-β-Ala-Asn-Leu-Asp-Lys, Dnp quencher on lysine ({FITC}-[βAla]NLDK(Dnp); also: attached to PEGA resin particle)”, which “Fluorescence value Subtilisin (changed amount)” value (subtilisin [1]) is on record?
**A.** 446

**Q.** And the “Fluorescence value Trypsin (changed amount)” value (trypsin [2])?
**A.** 5

**Q.** And the “Fluorescence value Elastase (changed amount)” value (elastase)?
**A.** 23

**Q.** For “Sample 25: PEGA resin particle bearing FITC-β-Ala-Ala-Pro-Leu-Lys, Dnp quencher on lysine ({FITC}-[βAla]APLK(Dnp); also: attached to PEGA resin particle)”, which “Fluorescence value Subtilisin (changed amount)” value (subtilisin [1]) is on record?
**A.** 428

**Q.** And the “Fluorescence value Trypsin (changed amount)” value (trypsin [2])?
**A.** 11

**Q.** What about the “Fluorescence value Elastase (changed amount)” value (elastase) of the same substance?
**A.** 134

**Q.** What does the source list for “Sample 23: PEGA resin particle bearing FITC-β-Ala-Ala-Pro-Ala-Lys, Dnp quencher on lysine ({FITC}-[βAla]APAK(Dnp); also: attached to PEGA resin particle)”?
**A.** Fluorescence value Subtilisin (changed amount) (subtilisin [1]): 291; Fluorescence value Trypsin (changed amount) (trypsin [2]): 13; fluorescence change by elastase activity relative to that by subtilisin activity (elastase; Table 3 values, same particle): about 2 times; Fluorescence value Elastase (changed amount) (elastase): 582

**Q.** With “Sample 12: PEGA resin particle bearing FITC-β-Ala-His-Glu-Lys-Lys, Dnp quencher on lysine ({FITC}-[βAla]HEKK(Dnp); also: attached to PEGA resin particle)” as the substance, how does the “Fluorescence value (changed amount)” value (trypsin [3]) read?
**A.** 45

**Q.** How did the “Fluorescence value (changed amount)” value (trypsin [3]) turn out when “Sample 17: PEGA resin particle bearing FITC-β-Ala-Pro-Arg-Leu-Lys, Dnp quencher on lysine ({FITC}-[βAla]PRLK(Dnp); also: attached to PEGA resin particle)” was run?
**A.** 10

**Q.** “Sample 3: PEGA resin particle bearing FITC-β-Ala-Ala-Pro-Val-Lys, Dnp quencher on lysine ({FITC}-[βAla]APVK(Dnp); also: attached to PEGA resin particle)” was tested. Which “Fluorescence value (changed amount)” value (subtilisin [4]) did it give?
**A.** 1.2

**Q.** How did the “Fluorescence value (changed amount)” value (trypsin [3]) turn out when “Sample 18: PEGA resin particle bearing FITC-β-Ala-Thr-Arg-Val-Lys, Dnp quencher on lysine ({FITC}-[βAla]TRVK(Dnp); also: attached to PEGA resin particle)” was run?
**A.** 9

**Q.** “Sample 16: PEGA resin particle bearing FITC-β-Ala-Gly-Arg-Arg-Lys, Dnp quencher on lysine ({FITC}-[βAla]GRRK(Dnp); also: attached to PEGA resin particle)” was tested. Which “Fluorescence value (changed amount)” value (trypsin [3]) did it give?
**A.** 14

**Q.** How did the “Fluorescence value (changed amount)” value (trypsin [3]) turn out when “Sample 13: PEGA resin particle bearing FITC-β-Ala-Ser-Ala-Arg-Lys, Dnp quencher on lysine ({FITC}-[βAla]SARK(Dnp); also: attached to PEGA resin particle)” was run?
**A.** 24

**Q.** With “Sample 1: PEGA resin particle bearing FITC-β-Ala-Pro-Leu-Gly-Lys, Dnp quencher on lysine ({FITC}-[βAla]PLGK(Dnp); also: attached to PEGA resin particle)” as the substance, how does the “Fluorescence value (changed amount)” value (subtilisin [4]) read?
**A.** 14.8

**Q.** And the “difference in the changed amount of the fluorescence values, sample 1 (highest activity) vs sample 8 (lowest activity)” value (subtilisin [4]; subtilisin, 20 minutes)?
**A.** ≥ 10 times

**Q.** Which “Fluorescence value (changed amount)” value (trypsin [3]) does the source give for “Sample 20: PEGA resin particle bearing FITC-β-Ala-His-Leu-Lys-Lys, Dnp quencher on lysine ({FITC}-[βAla]HLKK(Dnp); also: attached to PEGA resin particle)” here?
**A.** 7

**Q.** For “Sample 14: PEGA resin particle bearing FITC-β-Ala-Asn-Pro-Arg-Lys, Dnp quencher on lysine ({FITC}-[βAla]NPRK(Dnp); also: attached to PEGA resin particle)”, which “Fluorescence value (changed amount)” value (trypsin [3]) is on record?
**A.** 18

**Q.** “Sample 15: PEGA resin particle bearing FITC-β-Ala-Gly-Lys-Arg-Lys, Dnp quencher on lysine ({FITC}-[βAla]GKRK(Dnp); also: attached to PEGA resin particle)” was tested. Which “Fluorescence value (changed amount)” value (trypsin [3]) did it give?
**A.** 18

**Q.** “Sample 19: PEGA resin particle bearing FITC-β-Ala-Phe-Phe-Arg-Lys, Dnp quencher on lysine ({FITC}-[βAla]FFRK(Dnp); also: attached to PEGA resin particle)” was tested. Which “Fluorescence value (changed amount)” value (trypsin [3]) did it give?
**A.** 8
